According to US9732094B2, “Arylquinazolines” (Merck Patent GmbH, priority 2013, dated 2017):

Columns and labels:
[1] = target: Kv11.1 (hERG) (Homo sapiens (Human), UniProt Q12809); test: Kv11.1 ion channel binding assay (Predictor hERG fluorescence polarisation); conditions: cells marked *: measured using hERG binding assay instead of hERG patch clamp assay; read-out: Ki [Kv1.11 hERG]
Procedure: D) Kv11.1 Ion Channel Binding Assay
Kv11.1 (hERG=human ether a go-go related […]) is a cardiac K^+ channel which should if possible not interact with the test substances. This interaction is determined quantitatively with the aid of the Predictor™ hERG Fluorescence Polarizations (FP) Assays from Life Technologies. In the case of this assay principle, cardiomyocyte cell membranes having a certain proportion of Kv11.1 channels are isolated. A dye-labelled Kv11.1 binding partner gives a high fluorescence polarisation signal by interaction with the Kv11.1. In the case of displacement of the dye, a reduction in the fluorescence polarisation signal occurs.
The assay is carried out automatically as follows: 15 nl of the test substances (highest concentration: 10 mM, 10 concentrations: dilution factors 1:3.16, DMSO) are transferred into an empty microtitre plates having 384 wells by means of an acoustic pipetter. 3 μl of the isolated membranes are subsequently added. Membranes and test substances are incubated at 22° C. for 15 min (+/−5 min). In the next step, the dye-labelled binding partner is added, followed by incubation at 22° C. After incubation for two hours, the measurement of the fluorescence polarisation is carried out on an Envision multimode Reader. Measured raw data are standardised with the aid of Genedata Assay Analyzer. The 1050 and % effect values are calculated in Genedata Condoseo.

[2] = target: DNA-PK phosphorylation at serine 2056 (Homo sapiens (Human), UniProt P78527); test: DNA-PK phosphorylation at serine 2056 (cellular), bleomycin-treated HCT116 cells, ELISA; format: cell-based; conditions: cellular DNA-PK phosphorylation at serine 2056, HCT116; read-out: IC50 pDNA-PK
Summary of the method: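 HCT116 cells were treated with 10 μM bleomycin plus test compounds for six hours at 37 °C. Phospho-Ser2056 DNA-PK measured by chemiluminescent ELISA, normalised to total DNA-PKcs signal; DMSO control as blank.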

[3] = target: DNA-PK (Homo sapiens (Human), UniProt P78527); test: DNA-PK assay (biochemical), flashplate 33P-ATP kinase assay; conditions: biochemical DNA-PK assay
Summary of the method: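 Radiometric kinase reaction in streptavidin-coated flashplates, stopped with 200 mM EDTA, then 30 min room-temperature incubation and saline washes.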

Kv11.1 (hERG), sequence (Q12809 whole entry): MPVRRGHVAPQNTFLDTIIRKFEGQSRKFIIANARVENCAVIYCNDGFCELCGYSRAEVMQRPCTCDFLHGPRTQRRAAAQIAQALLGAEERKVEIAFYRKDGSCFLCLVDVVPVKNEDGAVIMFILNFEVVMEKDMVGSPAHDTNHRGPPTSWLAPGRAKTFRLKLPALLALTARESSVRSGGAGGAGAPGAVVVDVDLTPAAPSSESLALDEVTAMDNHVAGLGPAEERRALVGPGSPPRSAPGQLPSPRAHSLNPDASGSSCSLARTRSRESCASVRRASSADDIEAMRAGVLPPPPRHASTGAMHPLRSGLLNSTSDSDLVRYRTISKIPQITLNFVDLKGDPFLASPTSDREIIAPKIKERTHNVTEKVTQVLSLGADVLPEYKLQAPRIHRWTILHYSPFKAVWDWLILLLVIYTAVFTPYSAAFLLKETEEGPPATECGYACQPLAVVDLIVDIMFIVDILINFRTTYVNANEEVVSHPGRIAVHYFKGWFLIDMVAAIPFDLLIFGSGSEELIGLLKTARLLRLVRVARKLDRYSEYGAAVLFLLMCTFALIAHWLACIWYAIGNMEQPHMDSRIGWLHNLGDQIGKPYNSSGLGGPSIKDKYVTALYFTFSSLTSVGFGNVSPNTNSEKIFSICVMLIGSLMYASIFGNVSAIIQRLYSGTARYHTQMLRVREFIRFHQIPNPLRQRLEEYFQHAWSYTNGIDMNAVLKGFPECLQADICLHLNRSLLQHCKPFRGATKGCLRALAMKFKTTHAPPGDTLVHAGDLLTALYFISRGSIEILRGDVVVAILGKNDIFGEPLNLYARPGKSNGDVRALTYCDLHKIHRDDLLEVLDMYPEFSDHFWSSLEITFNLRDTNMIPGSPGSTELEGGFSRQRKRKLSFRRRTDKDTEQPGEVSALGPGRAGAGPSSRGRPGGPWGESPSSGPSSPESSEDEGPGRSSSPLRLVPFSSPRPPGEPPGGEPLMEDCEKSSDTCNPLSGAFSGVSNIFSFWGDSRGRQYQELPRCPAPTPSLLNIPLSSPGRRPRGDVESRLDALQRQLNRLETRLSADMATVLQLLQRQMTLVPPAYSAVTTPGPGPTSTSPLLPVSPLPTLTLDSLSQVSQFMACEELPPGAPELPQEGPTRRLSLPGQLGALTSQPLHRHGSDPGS

| Structure (SMILES) | Ki [1] [nM] | IC50 [2] [nM] | IC50 [3] [nM] |
| --- | --- | --- | --- |
| CNC(=O)C(c1ccc(F)c(-c2ncnc3cc(N4CCOCC4)ccc23)c1)c1ncccc1Cl (stereo not drawn) [Example 230, 2-(3-Chloro-pyridin-2-yl)-2-[4-fluoro-3-(7-morpholin-4-yl-quinazolin-4-yl)-phenyl]-N-methyl-acetamide] | 15000 to 25000 | 5000 to 10000 | 7 to 30 |
| Fc1cc(Cl)c(Cc2ccc3nccn3n2)cc1-c1ncnc2cc(N3CCOCC3)ccc12 [Example 235, 4-(4-Chloro-2-fluoro-5-imidazo[1,2-b]-pyridazin-6-ylmethyl - phenyl)-7-morpholin-4-ylquinazoline] | > 25000 | < 500 | < 3 |
| CNC(=O)C(c1ccc2nccn2n1)c1cc(-c2ncnc3cc(N4CCOCC4)ccc23)c(F)cc1Cl (stereo not drawn) [Example 236, 2-[2-Chloro-4-fluoro-5-(7-morpholin-4-yl-quinazolin-4-yl)-phenyl]-2-imidazo-[1,2-b]pyridazin-6-yl-N-methylacetamide] | > 25000 | 5000 to 10000 | > 30 |
| Cc1nccnc1C(O)c1ccc(F)c(-c2ncnc3cc(N4CCOCC4)sc23)c1 (stereo not drawn) [Example 245, [4-Fluoro-3-(6-morpholin-4-yl-thieno[3,2-d}-pyrimidin-4-yl)-phenyl]-(3-methyl-pyrazin-2-yl)-methanol] | > 25000 | < 500 | < 3 |
| Cc1nccnc1C(O)c1ccc(F)c(-c2ncnc3cc(N4CCOCC4)sc23)c1 (stereo not drawn) [Example 246, [4-Fluoro-3-(6-morpholin-4-yl-thieno[3,2-d}-pyrimidin-4-yl)-phenyl]-(3-methyl-pyrazin-2-yl)-methanol] | > 25000 | 500 to 5000 | 3 to 7 |
| COc1nccnc1C(O)c1cc(-c2ncnc3cc(N4CCOCC4)cc(F)c23)c(F)cc1Cl (stereo not drawn) [Example 249, [2-Chloro-4-fluoro-5-(5-fluoro-7-morpholin-4-yl-quinazolin-4-yl)-phenyl]-(3-methoxy-pyrazin-2-yl)-methanol] | > 25000 | < 500 | < 3 |
| Cc1nccnc1[C@@H](O)c1ccc(F)c(-c2ncnc3cc(N4CCOCC4)cc(F)c23)c1 [Example 251, (S)-[4-fluoro-3-(5-fluoro-7-morpholin-4-ylquinazolin-4-yl)-phenyl]-(3-methyl-pyrazin-2-yl)-methanol] | > 25000 | 500 to 5000 | 3 to 7 |
| CNC(=O)C(c1cc(-c2ncnc3cc(N4CCOCC4)ccc23)c(F)cc1Cl)c1nccnc1C (stereo not drawn) [Example 254, 2-[2-Chloro-4-fluoro-5-(7-morpholin-4-yl-quinazolin-4-yl)-phenyl]-N-methyl-2-(3-methyl-pyrazin-2-yl)acetamide] | > 25000 | 10000 to 30000 | 7 to 30 |
| COc1ccc(C(O)c2ccc(F)c(-c3ncnc4cc(N5CCOCC5)cc(F)c34)c2)nn1 (stereo not drawn) [Example 255, [4-Fluoro-3-(5-fluoro-7-morpholin-4-yl-quinazolin-4-yl)-phenyl]-(6-methoxy-pyridazin-3-yl)-methanol] | > 25000 | < 500 | 7 to 30 |
| COc1ccc(C(O)c2ccc(F)c(-c3ncnc4cc(N5CCOCC5)cc(F)c34)c2)nn1 (stereo not drawn) [Example 256, [4-Fluoro-3-(5-fluoro-7-morpholin-4-yl-quinazolin-4-yl)-phenyl]-(6-methoxy-pyridazin-3-yl)-methanol] | > 25000 | < 500 | < 3 |
| [2H]C1([2H])OC([2H])([2H])C([2H])([2H])N(c2ccc3c(-c4cc(C(O)c5nccnc5OC)c(Cl)cc4F)ncnc3c2)C1([2H])[2H] (stereo not drawn) [Example 258, [2-Chloro-4-fluoro-5-[7-(2,2,3,3,5,5,6,6-octadeutenomorpholin-4-yl)quinazolin-4-yl]phenyl]-(3-methoxypyrazin-2-yl)methanol] | > 25000 | < 500 | 3 to 7 |
| [2H]C1([2H])OC([2H])([2H])C([2H])([2H])N(c2ccc3c(-c4cc(C(O)c5nccnc5C)ccc4F)ncnc3c2)C1([2H])[2H] (stereo not drawn) [Example 259, [4-Fluoro-3-[7-(2.2,3,3,5,5,6,6-octadeuteriomorpholin-4-yl)quinazolin-4-yl]phenyl]-(3-methyl-pyrazin-2-yl)-methanol] | > 25000 | < 500 | < 3 |
| Cc1nccnc1C(O)c1cc(-c2ncnc3cc(N4CCOCC4)sc23)c(F)cc1Cl (stereo not drawn) [Example 264, [2-Chloro-4-fluoro-5-(6-morpholin-4-yl-thieno[3,2-d}-pyrimidin-4-yl)-phenyl]-(3-methyl-pyrazin-2-yl)-methanol] | > 25000 | < 500 | < 3 |
| Cc1nccnc1C(O)c1ccc(F)c(-c2ncnc3cc(N4CCOCC4)sc23)c1 (stereo not drawn) [Example 265, [4-Fluoro-3-(6-morpholin-4-yl-thieno[3,2-d}-pyrimidin-4-yl)-phenyl]-(3-methyl-pyrazin-2-yl)-methanol] | > 25000 | < 500 | < 3 |
| COc1nccnc1C(O)c1ccc(F)c(-c2ncnc3cc(N4CCOCC4)cc(F)c23)c1 (stereo not drawn) [Example 267, [4-Fluoro-3-(5-fluoro-7-morpholin-4-yl-quinazolin-4-yl)-phenyl]-(3-methoxy-pytazin-2-yl)-methanol] | > 25000 | < 500 | < 3 |
| Cc1nccnc1C(O)c1ccc(F)c(-c2ncnc3cc(N4CCOCC4)cc(F)c23)c1 (stereo not drawn) [Example 268, [4-Fluoro-3-(5-fluoro-7-morpholin-4-ylquinazolin-4-yl)phenyl]-(3-methylpyrazin-2-yl)methanol] | > 25000 | < 500 | < 3 |
| Cc1nccnc1C(C(N)=O)c1cc(-c2ncnc3cc(N4CCOCC4)sc23)c(F)cc1Cl (stereo not drawn) [Example 269, 2-[2-Chloro-4-fluoro-5-(6-morpholin-4-yl-thieno[3,2-d}-pyrimidin-4-yl)-phenyl]-2-(3-methyl-pyrazin-2-yl)-acetamide] | > 25000 | 500 to 5000 | 3 to 7 |
| Cc1nccnc1C(C(N)=O)c1ccc(F)c(-c2ncnc3cc(N4CCOCC4)sc23)c1 (stereo not drawn) [Example 270, 2-[4-Fluoro-3-(6-morpholin-4-yl-thieno[3,2-d}-pyrimidin-4-yl)-phenyl]-2-(3-methyl-pyrazin-2-yl)-acetamide] | > 25000 | 5000 to 10000 | 3 to 7 |
| COc1ccc(C(C(N)=O)c2cc(-c3ncnc4cc(N5CCOCC5)sc34)c(F)cc2Cl)nn1 (stereo not drawn) [Example 272, 2-[2-Chloro-4-fluoro-5-(6-morpholin-4-yl-thieno[3,2-d}-pyrimidin-4-yl)-phenyl]-2-(6-methoxy-pyridazin-3-yl)acetamide] | > 25000 | 500 to 5000 | 3 to 7 |
| COc1ccc(C(O)c2cc(-c3ncnc4cc(N5CCOCC5)cc(F)c34)c(F)cc2Cl)nn1 (stereo not drawn) [Example 278, [2-chloro-4-fluoro-5-(5-fluoro-7-morpholin-4-ylquinazolin-4-yl)phenyl]-(6-methoxypyridazin-3-yl)methanol] | > 25000 | < 500 | < 3 |
| OC(c1ccc(F)c(-c2ncnc3cc(N4CCOCC4)ccc23)c1)c1nccn2ncnc12 (stereo not drawn) [Example 279, [4-Fluoro-3-(7-morpholin-4-yl-quinazolin-4-yl)-phenyl]-[1,2,4]-triazolo[1,5-a]-pyrazin-8-ylmethanol] | > 25000 | 5000 to 10000 | 3 to 7 |
